“Also recorded” adds a separate entry of the source. Marks after values point to notes of the source that are not given here.
Key:
[1] = tested on: wild-type (AB) zebrafish (Danio rerio); test: Maximum tolerated concentration (MTC) determination in larval zebrafish; assay type: in vivo; conditions: for MTC (maximum tolerated concentration): after 24 h exposure, 5 dpf larvae; for Concentration up to which no signs of toxicity were produced: highest concentration tested
[2] = tested on: wild-type (AB) zebrafish (Danio rerio); test: animal or person; assay type: in vivo; conditions: for Concentration with significant effects on locomotor behaviors: AB zebrafish; for Distance moved / Variance turn angle: compound at 10 µM relative to controls, mean ± s.e.m., N = 12; for MEC: locomotor behaviors
[3] = tested on: wild-type (AB) zebrafish (Danio rerio); assay type: in vivo; conditions: compound at 10 µM relative to controls; mean ± s.e.m., N = 12
[4] = biological target: T1, human M1 muscarinic receptors (Homo sapiens, UniProt P11229); test: [3H]AA release ACh dose-response families fitted to an allosteric operational model; conditions: for Operational efficacy-B, τB: best-fit ± s.e.m.; for Operational efficacy-B, τB / Affinity-B, logKB: Em set to 2.0; for Affinity-B, logKB: given as logKB (negative log value), allosteric site
T1 sequence (P11229 1-460): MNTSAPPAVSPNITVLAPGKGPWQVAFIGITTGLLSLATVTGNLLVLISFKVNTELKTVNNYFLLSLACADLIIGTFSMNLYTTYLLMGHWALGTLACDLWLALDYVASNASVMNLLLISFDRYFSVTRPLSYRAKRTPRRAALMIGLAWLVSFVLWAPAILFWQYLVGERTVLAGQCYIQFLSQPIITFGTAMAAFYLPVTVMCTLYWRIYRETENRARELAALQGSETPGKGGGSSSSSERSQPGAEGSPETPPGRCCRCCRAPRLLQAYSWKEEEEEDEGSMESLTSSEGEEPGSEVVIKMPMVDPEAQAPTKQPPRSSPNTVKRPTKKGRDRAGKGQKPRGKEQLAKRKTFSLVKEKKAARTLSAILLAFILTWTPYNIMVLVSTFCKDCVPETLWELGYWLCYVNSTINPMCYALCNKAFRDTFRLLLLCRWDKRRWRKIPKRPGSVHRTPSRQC
Description: Stably transfected CHO-hM1 cells were seeded on 24-well plates (Greiner Bio-One GmbH, Frickenhausen, Germany) at a density of 5.0 × 10^4 cells/well in 0.5 ml of F-12 medium. Cells were incubated until they attached (approximately 3 h), followed by the addition of [^3H]AA to a final concentration of 0.05 μCi of [^3H]AA per well. The cells were then grown for 16 to 20 h before the assay was performed. [^3H]AA release was measured in Eagle’s basal medium with 20 mM HEPES and 2 mg/ml fatty acid-free bovine serum albumin (EM-BSA). Cells were rinsed twice with EM-BSA, followed by the addition of EM-BSA media containing experimental agents and incubated for 1 h at 37 °C. The assay was terminated by aspiration of the media, and the amount of [^3H]AA released was determined by liquid scintillation counting (Beckman-Coulter LS6500).
Tabulated [^3H]AA release data are represented as a fraction of maximal release elicited by ACh or as the fraction of release elicited by the relevant concentration of ACh alone, as indicated. Dose-response curves were normalized to the maximal response of ACh without allosteric ligand. Where indicated, response curves were analyzed using the empirical four-parameter equation: Y=Top+Bottom-Top/1+X/C50^n where X is the concentration of the ligand used, Y is the amount of response, C50 is the concentration of the ligand that produces 50% of the maximal effect, Top and Bottom are the top and bottom plateaus of the curve, and n is related to the Hill slope for the curve. Where indicated, families of response curves were analyzed according to an allosteric operational model[50],[51]: Y=EM[τAA(KB+αβB)+τBBKA]/[τAA(KB+αβB)+τBBKA+AKB+KAKB+KAB+αAB] where EM is the maximal response; A is the concentration of ACh; B is the concentration of the allosteric ligand; τA and τB represent the operational efficacies of A and B, respectively; KA and KB are the equilibrium dissociation constants of A and B; and α and β represent the cooperativities between A and B in terms of binding and activation, respectively. Curve-fitting was carried out with GraphPad Prism, version 5.0 or 6.0 (San Diego CA).

[5] = biological target: T1, human M1 muscarinic receptors; test: [3H]-arachidonic acid release in CHO cells expressing M1 receptors, with and without ACh (single modulator concentration, four-parameter curves); assay type: cell-based; parameters: expressed in transfected cells; host or cells: CHO cells stably transfected with hM1, obtained from Mark Brann's laboratory (NIH); conditions: for 0.1 µM ACh: response with modulator present divided by response to ACh alone / 100 µM ACh: response with modulator present divided by response to ACh alone / No ACh: agonist effect of the allosteric ligand by itself, fraction of the maximal response that could be elicited by ACh: modulator 10 µM, CHO-hM1, mean ± s.e.m.; for No ACh: agonist effect of the allosteric ligand by itself, fraction of the maximal response that could be elicited by ACh: at least 4 determinations; for Effect on M1 receptor activity and ACh response, in words: modulators at 10 µM (amiodarone 30 µM)

Row | SMILES | MTC (maximum tolerated concentration) [1] [µM] | Concentration up to which no signs of toxicity were produced [1] [µM] | Therap. index [2] | Effect on locomotor activity and turning behaviors, in words ([2]; 30 min spontaneous swimming period) | Concentration with significant effects on locomotor behaviors [2] [µM] | Distance moved [2] | Variance turn angle [2] | MEC [2] [µM] | Angular velocity [3] [%] | Operational efficacy-B, τB [4] | Affinity-B, logKB [4] | 0.1 µM ACh: response with modulator present divided by response to ACh alone [5] | 100 µM ACh: response with modulator present divided by response to ACh alone [5] | No ACh: agonist effect of the allosteric ligand by itself, fraction of the maximal response that could be elicited by ACh [5] | Effect on M1 receptor activity and ACh response, in words [5] | Kb ([4]; read-out: KB, affinity for M1 muscarinic receptors, allosteric operational model) [nM]
1 | COc1c(I)cc(CN2C(=O)C(=O)c3ccccc32)cc1I [Compound 8a, 1-(3,5-diiodo-4-methoxybenzyl)indoline-2,3-dione] | > 30 | ≥ 30 | > 100 | reduced locomotor activity | 1 | 45.8 ± 6.4*** % | 161.1 ± 13.4*** % | 0.3 | 197.1 ± 19.8 | 0.17 ± 0.03 | −6.26 ± 0.15 | 2.44 ± 0.21 | 1.62 ± 0.06 | 0.24 ± 0.04 | significant enhancement of ACh activity; also recorded: dramatically enhanced ACh efficacy | –
2 | COc1c(Br)cc(CN2C(=O)C(=O)c3ccccc32)cc1Br [Compound 8c, 1-(3,5-dibromo-4-methoxybenzyl)indoline-2,3-dione] | > 30 | ≥ 30 | – | – | 1 | 26.9 ± 3.7*** % | 150.8 ± 12.0*** % | 0.1 | 201.6 ± 20.2 | 0.33 ± 0.06 | −5.53 ± 0.15 | 2.62 ± 0.19 | 1.42 ± 0.09 | 0.19 ± 0.03 | dramatically enhanced ACh efficacy | 3000

Reference: PMC11213934, “Allosteric modulators of M1 muscarinic receptors enhance acetylcholine efficacy and decrease locomotor activity and turning behaviors in zebrafish” (Scientific Reports, 2024)
